For one data set, the target named is T1, Interstitial collagenase (Homo sapiens, UniProt P03956).
T1 sequence (P03956 whole entry): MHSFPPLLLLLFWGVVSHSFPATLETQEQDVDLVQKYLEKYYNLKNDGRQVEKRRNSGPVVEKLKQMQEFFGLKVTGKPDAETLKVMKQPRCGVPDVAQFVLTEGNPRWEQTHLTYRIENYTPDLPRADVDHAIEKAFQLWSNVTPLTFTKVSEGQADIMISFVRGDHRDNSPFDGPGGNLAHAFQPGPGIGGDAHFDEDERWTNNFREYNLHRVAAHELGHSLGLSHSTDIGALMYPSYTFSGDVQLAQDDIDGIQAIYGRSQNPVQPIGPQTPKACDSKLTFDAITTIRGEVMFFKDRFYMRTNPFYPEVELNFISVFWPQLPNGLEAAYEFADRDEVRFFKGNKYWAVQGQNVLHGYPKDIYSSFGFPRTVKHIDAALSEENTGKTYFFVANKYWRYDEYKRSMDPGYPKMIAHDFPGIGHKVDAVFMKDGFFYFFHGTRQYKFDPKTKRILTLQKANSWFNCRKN
The experiment in a line: In vitro inhibitory activity against matrix metalloprotease 1 isolated from the culture medium of human skin fibroblasts induced with PMA.

The next data set has as its target T2, Matrilysin (Homo sapiens, UniProt P09237).
T2 sequence (P09237 whole entry): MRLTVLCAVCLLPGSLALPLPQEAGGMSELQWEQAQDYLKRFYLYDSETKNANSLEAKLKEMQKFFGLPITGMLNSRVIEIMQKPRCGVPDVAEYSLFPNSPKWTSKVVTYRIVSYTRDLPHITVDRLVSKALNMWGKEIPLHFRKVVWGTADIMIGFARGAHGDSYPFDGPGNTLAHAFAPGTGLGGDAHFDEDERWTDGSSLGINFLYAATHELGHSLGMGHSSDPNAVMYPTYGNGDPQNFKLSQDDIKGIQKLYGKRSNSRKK
The experiment in a line: In vitro inhibitory activity against human recombinant matrix metalloprotease 7.

The target of data set [1] is T3, 72 kDa type IV collagenase (Homo sapiens, UniProt P08253). The experiment in a line: In vitro inhibitory activity against matrix metalloprotease 2 isolated from human HT1080 fibrosarcoma cells induced with TNF.
T3 sequence (P08253 whole entry): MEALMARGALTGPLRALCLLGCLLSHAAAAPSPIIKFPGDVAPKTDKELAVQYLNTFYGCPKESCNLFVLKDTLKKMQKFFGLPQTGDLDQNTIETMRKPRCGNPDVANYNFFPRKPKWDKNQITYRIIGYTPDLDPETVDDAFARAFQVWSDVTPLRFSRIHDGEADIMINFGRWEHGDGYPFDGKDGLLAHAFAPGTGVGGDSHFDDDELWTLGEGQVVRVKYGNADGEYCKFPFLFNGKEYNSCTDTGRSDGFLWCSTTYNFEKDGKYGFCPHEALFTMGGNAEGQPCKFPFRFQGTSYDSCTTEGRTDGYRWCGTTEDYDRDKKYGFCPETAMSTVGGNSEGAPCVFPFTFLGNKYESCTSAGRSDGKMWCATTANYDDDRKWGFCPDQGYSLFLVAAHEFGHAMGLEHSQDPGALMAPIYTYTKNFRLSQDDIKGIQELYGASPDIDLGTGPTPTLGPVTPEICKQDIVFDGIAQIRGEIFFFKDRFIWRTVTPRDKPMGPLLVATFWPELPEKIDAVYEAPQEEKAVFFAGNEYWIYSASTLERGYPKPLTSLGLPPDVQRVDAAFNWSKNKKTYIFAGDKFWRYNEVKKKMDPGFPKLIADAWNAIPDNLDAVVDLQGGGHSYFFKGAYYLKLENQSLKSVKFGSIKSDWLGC
Data set [2] deals with T4, Stromelysin-1 (Homo sapiens, UniProt P08254). The experiment in a line: In vitro inhibitory activity against human recombinant matrix metalloprotease 3.
T4 sequence (P08254 whole entry): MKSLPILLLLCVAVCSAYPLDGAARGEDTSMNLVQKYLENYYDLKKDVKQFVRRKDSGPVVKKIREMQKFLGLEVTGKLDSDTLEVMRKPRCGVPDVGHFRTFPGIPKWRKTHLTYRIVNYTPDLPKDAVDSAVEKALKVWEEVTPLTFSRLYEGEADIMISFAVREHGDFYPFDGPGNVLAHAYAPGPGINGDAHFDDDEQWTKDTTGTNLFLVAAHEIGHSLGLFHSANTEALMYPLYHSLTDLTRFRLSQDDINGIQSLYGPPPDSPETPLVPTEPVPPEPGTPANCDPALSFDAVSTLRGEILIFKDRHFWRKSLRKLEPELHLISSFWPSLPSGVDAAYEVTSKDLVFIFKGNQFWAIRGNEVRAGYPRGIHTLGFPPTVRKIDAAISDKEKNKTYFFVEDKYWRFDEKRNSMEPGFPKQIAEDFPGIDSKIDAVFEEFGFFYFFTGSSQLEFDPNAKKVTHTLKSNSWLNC
Data set [3] deals with T3, 72 kDa type IV collagenase. The experiment in a line: Inhibition of matrix metalloprotease 2 (MMP2) of human HT1080 fibrosarcoma cells induced with TNF.
The target in data set [4] is T4, Stromelysin-1. The experiment in a line: Inhibition of human recombinant matrix metalloprotease 3 (MMP3).
Data set [5] is described as follows: Half life was measured in rat at dose of 30 mg/kg by po administration. Format: ADME, organism-based. Further details: dose 30 mg/kg, route oral. The following applies: in vivo.
Data set [6] can be described thus: Bioavailability in rat after po administration of 30 mg/kg dose. Format: ADME, organism-based. The following applies: in vivo.
Data set [7] in a line: Half life was measured in monkey at dose of 10 mg/kg by po administration. Format: ADME, organism-based. Further details: dose 10 mg/kg, route oral. The following applies: primates, in vivo.
The nature of data set [8]: Bioavailability in monkey after po administration of 10 mg/kg dose. The following applies: primates, in vivo. Format: ADME, organism-based.
Data set [9] in a line: Oral bioavailability in monkey (dose 10 mg/kg). It counts as ADME, organism-based. Conditions: primates, in vivo.
Data set [10] in a line: Half life was measured in rat at dose of 30 mg/kg by iv administration. Format: ADME, organism-based. Further details: dose 30 mg/kg, route intravenous. The following applies: in vivo.

On to `C=CCC(C(=O)NO)C(CC(C)C)C(=O)N[C@@H](Cc1ccccc1)C(=O)c1ccccc1` (single isomer, unassigned), for which the IC50 against Interstitial collagenase stood at 10 nM; at Matrilysin, 3.6 nM; in data set [1] it was 3.4 nM.

In the case of `C=CCC(C(=O)NO)C(CC(C)C)C(=O)N[C@@H](Cc1ccccc1)C(=O)c1cccs1` (single isomer, unassigned), the values for the IC50 (on Matrilysin; in data set [1]; at Stromelysin-1 [2]) were 13 nM, 6.5 nM and 3.2 nM, respectively.

In the case of `CNC(=O)[C@H](Cc1ccccc1)NC(=O)[C@H](CC(C)C)[C@H](CSc1cccs1)C(=O)NO` [BATIMASTAT], the IC50 on Matrilysin worked out at 2.4 nM.

In the case of `CC(C)C[C@H]1C(=O)N[C@H](C(=O)c2ccc(S(C)(=O)=O)cc2)Cc2ccc(cc2)OCCCC[C@@H]1C(=O)NO`, the IC50 on Interstitial collagenase was 60 nM; on Matrilysin it was 5.7 nM; in data set [1], 8.5 nM; at Stromelysin-1 [2], 9.8 nM.

Turning to `CC(C)C[C@H]1C(=O)N[C@H](C(=O)c2ccccc2)Cc2ccc(cc2)OCCCCC[C@@H]1C(=O)NO`, the IC50 at Interstitial collagenase was found to be 9.1 nM; on Matrilysin, 2.2 nM; in [1], 3.9 nM.

As for `C=CCC(C(=O)NO)C(CC(C)C)C(=O)N[C@@H](Cc1ccccc1)C(C)=O` (single isomer, unassigned), the IC50 at Matrilysin was found to be 45 nM; in [1], 22 nM.

For `C=CCC(C(=O)NO)C(CC(C)C)C(=O)N[C@H](C(=O)c1c[nH]c2ccccc12)C(C)(C)C` (single isomer, unassigned), the results for the IC50 (on Interstitial collagenase; on Matrilysin; in data set [1]) were 1.2 nM, 0.78 nM and 1.6 nM, respectively.

Turning to `C=CCC(C(=O)NO)C(CC(C)C)C(=O)N[C@@H](Cc1ccccc1)C(=O)c1cccnc1` (single isomer, unassigned), the half-inhibitory concentration (IC50) against Interstitial collagenase came out at 14 nM; at Matrilysin, 8.6 nM; in data set [1], 8.6 nM; at Stromelysin-1 [2], 10 nM.

Regarding `C=CCC(C(=O)NO)C(CC(C)C)C(=O)N[C@@H](Cc1ccccc1)C(=O)c1ncco1` (single isomer, unassigned), the IC50 against Interstitial collagenase is 2.7 nM; at Matrilysin, 4.2 nM; in data set [1], 7.2 nM; on Stromelysin-1 [2] it was 1.8 nM.

As for `CNC(=O)[C@@H]1Cc2ccc(cc2)OCCCC[C@H](C(=O)NO)[C@@H](CC(C)C)C(=O)N1`, the IC50 came to 5.6 nM in data set [1] and 4 nM on Stromelysin-1 [2].

With `CC(C)C[C@H]1C(=O)N[C@H](C(=O)c2c[nH]c3ccccc23)Cc2ccc(cc2)OCCCCC[C@@H]1C(=O)NO`, the IC50 against Interstitial collagenase is 4.8 nM; on Matrilysin, 3.1 nM; in data set [1], 6.1 nM; on Stromelysin-1 [2] it was 5.1 nM.

As for `CC(C)C[C@H]1C(=O)N[C@H](C(=O)c2ccc(CO)cc2)Cc2ccc(cc2)OCCCC[C@@H]1C(=O)NO`, the IC50 is 5 nM against Interstitial collagenase, 1.5 nM on Matrilysin, 5.1 nM in data set [1] and 3.4 nM on Stromelysin-1 [2].

On to `CC(C)C[C@H]1C(=O)N[C@H](C(=O)c2ccc(C(C)(C)C)cc2)Cc2ccc(cc2)OCCCC[C@@H]1C(=O)NO`, for which the IC50 against Interstitial collagenase was determined as 270 nM; at Matrilysin, 40 nM; in [1], 91 nM; at Stromelysin-1 [2] it was 110 nM.

`C=CCC(C(=O)NO)C(CC(C)C)C(=O)N[C@@H](Cc1ccccc1)C(=O)CC` (single isomer, unassigned): the IC50 is 40 nM on Interstitial collagenase, 39 nM at Matrilysin, 33 nM in data set [1] and 82 nM at Stromelysin-1 [2].

Take `C=CCC(C(=O)NO)C(CC(C)C)C(=O)N[C@@H](Cc1ccccc1)C(=O)c1nccs1` (single isomer, unassigned): the results for the IC50 (at Matrilysin; in data set [3]; at Stromelysin-1 [4]) were 220 nM, 1100 nM and 360 nM, respectively.

Consider `CNC(=O)[C@@H]1Cc2ccc(cc2)OCCCCC[C@H](C(=O)NO)[C@@H](CC(C)C)C(=O)N1`, for which the IC50 on Matrilysin amounted to 6.1 nM; at Stromelysin-1 [2] it was 2.6 nM.

Take `C=CCC(C(=O)NO)C(CC(C)C)C(=O)N[C@@H](Cc1ccccc1)C(=O)c1c[nH]c2ccccc12` (single isomer, unassigned): the half-life in data set [5] is 1.45 h; in data set [7] it was 20 h. Moreover, the bioavailability in data set [6] amounted to 7%; in data set [8], 12%.

Turning to `CC(C)C[C@H](CC(=O)NO)C(=O)N[C@@H](Cc1ccccc1)C(=O)c1c[nH]c2ccccc12`, the IC50 at Interstitial collagenase came out at 5.1 nM; on Matrilysin it was 4.3 nM; in [1], 1 nM.

For the compound `CC(C)C[C@H]1C(=O)N[C@H](C(=O)c2ccccc2)Cc2ccc(cc2)OCCCC[C@@H]1C(=O)NO`, the IC50 came to 13 nM on Interstitial collagenase, 3.3 nM on Matrilysin, 9.5 nM in data set [1] and 8.9 nM at Stromelysin-1 [2]. In addition, the bioavailability in data set [9] amounted to 33%. The half-life in [7] is 15 h.

Regarding `C=CCC(C(=O)NO)C(CC(C)C)C(=O)N[C@@H](Cc1ccccc1)C(=O)c1ccc[nH]1` (single isomer, unassigned), the IC50 is 2.6 nM at Interstitial collagenase, 1.2 nM at Matrilysin and 1.1 nM in [1].

With `CC(C)CC(C(=O)N[C@H](C(=O)c1c[nH]c2ccccc12)C(C)(C)C)C(O)C(=O)NO` (single isomer, unassigned), the figures for the IC50 (against Interstitial collagenase; at Matrilysin; in data set [1]) were 0.26 nM, 0.3 nM and 0.38 nM, respectively. Further, the bioavailability in data set [9] was 10%. The compound further showed a half-life in data set [7] of 12 h.

Consider `C=CCC(C(=O)NO)C(CC(C)C)C(=O)N[C@@H](Cc1ccccc1)C(=O)c1cc[nH]c1` (single isomer, unassigned), for which the IC50 on Interstitial collagenase is 6.2 nM; on Matrilysin it was 8 nM; in [1], 2.7 nM; on Stromelysin-1 [2], 6.6 nM.

For the compound `CC(C)CC(C(=O)N[C@@H](Cc1ccccc1)C(=O)c1c[nH]c2ccccc12)C(O)C(=O)NO` (single isomer, unassigned), the IC50 came out at 5 nM against Interstitial collagenase, 1.1 nM at Matrilysin and 0.6 nM in data set [1].

As for `C=CCC(C(=O)NO)C(CC(C)C)C(=O)N[C@@H](Cc1ccccc1)C(=O)NC` (single isomer, unassigned), at Matrilysin, the IC50 came to 11 nM. In addition, in [6], the bioavailability worked out at 0%. Moreover, the half-life in data set [10] is 0.35 h.

The compound `CNC(=O)[C@@H](NC(=O)C(CC(C)C)C(O)C(=O)NO)C(C)(C)C` (single isomer, unassigned) gave a bioavailability in data set [9] of 15%. In [7], this compound gave a half-life of 27 h.

With `CC(C)C[C@H]1C(=O)N[C@H](C(=O)c2ccc[nH]2)Cc2ccc(cc2)OCCCC[C@@H]1C(=O)NO`, the IC50 against Interstitial collagenase was 1.9 nM; on Matrilysin, 4.2 nM; in [1], 7.2 nM; on Stromelysin-1 [2] it was 7.2 nM.

For the compound `C=CCC(C(=O)NO)C(CC(C)C)C(=O)N[C@@H](Cc1ccccc1)C(=O)c1nc2ccccc2[nH]1` (single isomer, unassigned), the IC50 against Interstitial collagenase stood at 180 nM; at Matrilysin, 68 nM; in data set [1], 110 nM; at Stromelysin-1 [2], 54 nM.

`C=CCC(C(=O)NO)C(CC(C)C)C(=O)N[C@@H](Cc1ccccc1)C(=O)c1cn(C)c2ccccc12` (single isomer, unassigned): the IC50 amounted to 4.7 nM against Interstitial collagenase, 29 nM at Matrilysin, 23 nM in data set [1] and 36 nM at Stromelysin-1 [2].

(Values after ChEMBL document CHEMBL1130676, “Aryl ketones as novel replacements for the C-terminal amide bond of succinyl hydroxamate MMP inhibitors” (Bioorg Med Chem Lett, 1998).)
